Results as given in ChEMBL document CHEMBL5053510, “Discovery of AS-1763: A Potent, Selective, Noncovalent, and Orally Available Inhibitor of Bruton's Tyrosine Kinase” (J Med Chem, 2021).
Active and inactive are the calls of the source. No cut-off for these calls is given here.

Key:
OCI-Ly10 [1] = experiment: Antitumor activity against human OCILY10 cells in SCID mouse assessed as tumor growth inhibition at 60 mg/kg, po bid measured after 63 days; assay type: functional; conditions: OCI-Ly10, 1512 h, time 63 day, read-out: TGI
[2] = system: Proto-oncogene tyrosine-protein kinase receptor Ret (Homo sapiens), P07949 [S891A]; experiment: Inhibition of human RET S891A mutant (658 - 1114) expressed in baculovirus expression system at 0.3 uM by mobility shift assay
[3] = Apparent permeability of the compound in human Caco-2 cells; assay type: ADME, cell-based
[4] = Volume of distribution in steady state rat at 2 mg/kg, iv; assay type: ADME, organism-based; conditions: in vivo, read-out: Vdss
OCI-Ly10 [5] = experiment: Antitumor activity against human OCILY10 cells xenografted in SCID mouse assessed as tumor growth inhibition at 6 mg/kg, po bid measured after 63 days; assay type: functional; conditions: OCI-Ly10, 1512 h, time 63 day, read-out: TGI
[6] = biological target: T1, Tyrosine-protein kinase BTK (Homo sapiens, UniProt Q06187); experiment: Inhibition of wild type BTK (unknown origin) in presence of 1 mM ATP by microplate reader assay
T1 sequence (Q06187 whole entry): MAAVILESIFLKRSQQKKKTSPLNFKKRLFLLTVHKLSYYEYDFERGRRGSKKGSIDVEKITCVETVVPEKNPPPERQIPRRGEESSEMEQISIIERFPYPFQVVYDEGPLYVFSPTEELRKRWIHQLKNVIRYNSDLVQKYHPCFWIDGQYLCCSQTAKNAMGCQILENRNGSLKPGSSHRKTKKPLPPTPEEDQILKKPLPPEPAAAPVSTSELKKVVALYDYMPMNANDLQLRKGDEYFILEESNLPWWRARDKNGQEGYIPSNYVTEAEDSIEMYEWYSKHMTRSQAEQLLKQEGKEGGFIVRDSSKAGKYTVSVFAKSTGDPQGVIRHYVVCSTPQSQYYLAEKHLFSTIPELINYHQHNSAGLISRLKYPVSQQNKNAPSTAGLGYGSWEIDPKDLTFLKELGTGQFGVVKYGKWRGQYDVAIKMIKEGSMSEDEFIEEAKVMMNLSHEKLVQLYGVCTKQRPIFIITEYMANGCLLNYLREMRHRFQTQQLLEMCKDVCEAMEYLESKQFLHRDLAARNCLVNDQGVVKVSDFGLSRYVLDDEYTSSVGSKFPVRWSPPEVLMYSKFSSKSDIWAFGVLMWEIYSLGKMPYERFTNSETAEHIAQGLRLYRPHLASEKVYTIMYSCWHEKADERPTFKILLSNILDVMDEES

[7] = Initial plasma concentration in rat at 2 mg/kg, iv; assay type: ADME, organism-based
[8] = biological target: Epithelial discoidin domain-containing receptor 1 (Homo sapiens, UniProt Q08345); experiment: Inhibition of human DDR1 (444 - 876 residues) expressed in baculovirus expression system at 0.3 uM by mobility shift assay
Chain of Epithelial discoidin domain-containing receptor 1 (Q08345 whole entry, the tested form may be a part): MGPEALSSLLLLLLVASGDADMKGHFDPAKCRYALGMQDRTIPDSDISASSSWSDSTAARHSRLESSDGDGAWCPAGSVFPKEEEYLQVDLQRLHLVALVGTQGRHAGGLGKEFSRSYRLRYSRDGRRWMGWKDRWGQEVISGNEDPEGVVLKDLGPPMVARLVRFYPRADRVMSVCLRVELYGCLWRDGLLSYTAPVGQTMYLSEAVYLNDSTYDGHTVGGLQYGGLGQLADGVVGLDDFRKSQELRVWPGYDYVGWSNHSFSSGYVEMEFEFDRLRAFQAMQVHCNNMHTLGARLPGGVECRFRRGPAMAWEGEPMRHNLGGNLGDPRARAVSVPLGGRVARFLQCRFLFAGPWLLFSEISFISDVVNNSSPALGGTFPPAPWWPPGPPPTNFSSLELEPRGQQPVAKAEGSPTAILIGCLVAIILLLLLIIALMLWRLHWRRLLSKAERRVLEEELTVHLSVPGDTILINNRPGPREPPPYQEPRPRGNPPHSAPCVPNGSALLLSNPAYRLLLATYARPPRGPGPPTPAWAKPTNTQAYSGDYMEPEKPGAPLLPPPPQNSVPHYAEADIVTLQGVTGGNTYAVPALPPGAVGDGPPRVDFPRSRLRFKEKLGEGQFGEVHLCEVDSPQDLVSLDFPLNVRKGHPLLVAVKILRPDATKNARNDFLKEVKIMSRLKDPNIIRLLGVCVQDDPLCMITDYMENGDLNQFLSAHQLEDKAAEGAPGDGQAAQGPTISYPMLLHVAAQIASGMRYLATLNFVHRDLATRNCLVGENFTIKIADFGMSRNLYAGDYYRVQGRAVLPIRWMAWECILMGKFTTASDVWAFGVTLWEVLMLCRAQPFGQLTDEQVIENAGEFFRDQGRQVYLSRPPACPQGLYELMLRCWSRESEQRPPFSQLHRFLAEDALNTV

[9] = biological target: Tyrosine-protein kinase BTK (Homo sapiens, UniProt Q06187, C481S); experiment: Inhibition of BTK C481S mutant (unknown origin) in presence of 1 mM ATP by microplate reader assay
[10] = AUC (0 to last) in mouse at 15 mg/kg, po; assay type: ADME, organism-based; design: time 0 - last, dose 15 mg/kg, route po; conditions: in vivo
[11] = biological target: Cytoplasmic tyrosine-protein kinase BMX (Homo sapiens) (UniProt P51813); experiment: Inhibition of human full-length BMX (1 to 675 residues) expressed in baculovirus expression system at 0.3 uM by mobility shift assay
Chain of Cytoplasmic tyrosine-protein kinase BMX (Homo sapiens) (P51813 whole entry, the tested form may be a part): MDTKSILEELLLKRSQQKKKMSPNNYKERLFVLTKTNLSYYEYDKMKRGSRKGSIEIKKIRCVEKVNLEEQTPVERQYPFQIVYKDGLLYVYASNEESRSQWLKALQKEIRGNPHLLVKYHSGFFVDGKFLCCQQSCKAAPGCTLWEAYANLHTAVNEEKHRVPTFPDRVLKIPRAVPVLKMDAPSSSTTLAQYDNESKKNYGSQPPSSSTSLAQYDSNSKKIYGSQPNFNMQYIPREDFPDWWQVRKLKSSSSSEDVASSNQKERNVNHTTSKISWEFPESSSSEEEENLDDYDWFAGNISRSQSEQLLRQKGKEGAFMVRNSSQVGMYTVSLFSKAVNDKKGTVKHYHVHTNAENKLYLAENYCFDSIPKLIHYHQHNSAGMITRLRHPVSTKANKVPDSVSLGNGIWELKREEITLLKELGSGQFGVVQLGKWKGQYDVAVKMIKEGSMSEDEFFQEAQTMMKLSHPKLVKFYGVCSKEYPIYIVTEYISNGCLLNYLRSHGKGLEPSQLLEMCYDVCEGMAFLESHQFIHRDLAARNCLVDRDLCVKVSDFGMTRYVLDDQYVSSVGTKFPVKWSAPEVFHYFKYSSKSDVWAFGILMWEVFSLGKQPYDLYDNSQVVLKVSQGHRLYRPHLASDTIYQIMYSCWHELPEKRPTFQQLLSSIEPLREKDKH

[12] = AUC (0 to last) in dog at 5 mg/kg, po; assay type: ADME, organism-based, Canis lupus familiaris; design: time 0 - last, dose 5 mg/kg, route po; conditions: in vivo
[13] = Plasma protein binding in dog; assay type: ADME, cell-free, Canis lupus familiaris; conditions: read-out: PPB (converted)
Cytochrome P450 3A4 = Cytochrome P450 3A4 (Homo sapiens, UniProt P08684); experiment: Inhibition of CYP3A4 (unknown origin); assay type: ADME
Chain of Cytochrome P450 3A4 (P08684 whole entry): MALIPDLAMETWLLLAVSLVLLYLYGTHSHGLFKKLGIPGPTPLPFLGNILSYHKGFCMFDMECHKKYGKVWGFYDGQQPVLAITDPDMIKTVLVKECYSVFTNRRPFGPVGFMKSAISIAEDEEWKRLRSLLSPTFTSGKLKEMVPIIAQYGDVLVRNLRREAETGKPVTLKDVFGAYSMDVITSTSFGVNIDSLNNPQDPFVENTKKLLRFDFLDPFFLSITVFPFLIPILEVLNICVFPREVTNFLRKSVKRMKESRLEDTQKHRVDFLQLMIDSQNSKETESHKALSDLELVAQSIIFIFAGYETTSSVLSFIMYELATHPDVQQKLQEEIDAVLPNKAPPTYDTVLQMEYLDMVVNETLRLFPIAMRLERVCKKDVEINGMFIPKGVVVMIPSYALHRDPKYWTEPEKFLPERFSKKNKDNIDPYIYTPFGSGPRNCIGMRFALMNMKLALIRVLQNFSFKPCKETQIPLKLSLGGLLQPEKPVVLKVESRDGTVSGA

Cytochrome P450 2B6 = Cytochrome P450 2B6 (Homo sapiens, UniProt P20813); experiment: Inhibition of CYP2B6 (unknown origin); assay type: ADME
Chain of Cytochrome P450 2B6 (P20813 whole entry): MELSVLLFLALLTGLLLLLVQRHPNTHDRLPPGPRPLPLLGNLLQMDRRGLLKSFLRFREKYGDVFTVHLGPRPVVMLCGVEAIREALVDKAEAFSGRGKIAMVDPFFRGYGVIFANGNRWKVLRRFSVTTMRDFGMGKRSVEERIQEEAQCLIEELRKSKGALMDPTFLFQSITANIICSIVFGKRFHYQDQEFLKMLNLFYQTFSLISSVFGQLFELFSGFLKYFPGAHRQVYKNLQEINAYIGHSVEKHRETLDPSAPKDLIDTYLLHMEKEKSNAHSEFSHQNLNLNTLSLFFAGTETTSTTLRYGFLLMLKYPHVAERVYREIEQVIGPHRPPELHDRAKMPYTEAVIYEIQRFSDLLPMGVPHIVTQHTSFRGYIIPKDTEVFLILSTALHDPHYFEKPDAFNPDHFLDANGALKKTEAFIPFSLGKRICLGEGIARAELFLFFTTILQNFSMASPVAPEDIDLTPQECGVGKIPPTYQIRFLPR

[14] = Initial plasma concentration in rat at 15 mg/kg, po; assay type: ADME, organism-based; conditions: in vivo
[15] = Initial plasma concentration in dog at 5 mg/kg, po; assay type: ADME, organism-based, Canis lupus familiaris; conditions: in vivo
[16] = AUC (0 to last) in dog at 1 mg/kg, iv; assay type: ADME, organism-based, Canis lupus familiaris; design: time 0 - last, dose 1 mg/kg, route iv; conditions: in vivo
[17] = Half life in rat at 2 mg/kg, iv; assay type: ADME, organism-based; conditions: in vivo
[18] = biological target: T1, Tyrosine-protein kinase BTK; experiment: Inhibition of human BTK-A using phosphorylated substrate in presence of ATP by microplate reader assay
[19] = biological target: Cytoplasmic tyrosine-protein kinase BMX (Homo sapiens, UniProt P51813); experiment: Inhibition of human full-length BMX (1 to 675 residues) expressed in baculovirus expression system by mobility shift assay
Chain of Cytoplasmic tyrosine-protein kinase BMX (P51813 whole entry, the tested form may be a part): as the sequence (P51813 whole entry, the tested form may be a part) above

[20] = biological target: T1, Tyrosine-protein kinase BTK; experiment: Inhibition of human full-length BTK (2 to 659 residues) expressed in baculovirus expression system at 0.3 uM by mobility shift assay
HEL 299 = experiment: Cytotoxicity against human HEL 299 cells assessed as cell growth inhibition measured after 96 hrs; assay type: cell-based; conditions: HEL 299, 96 h
[21] = Initial plasma concentration in mouse at 15 mg/kg, po; assay type: ADME, organism-based; conditions: in vivo
[22] = biological target: Muscle, skeletal receptor tyrosine-protein kinase (Homo sapiens) (UniProt O15146); experiment: Inhibition of human MUSK expressed in baculovirus expression system at 0.3 uM by mobility shift assay
[23] = biological target: T2, Proto-oncogene tyrosine-protein kinase Src (Homo sapiens, UniProt P12931); experiment: Inhibition of human full length SRC expressed in baculovirus expression system at 0.3 uM by mobility shift assay
T2 sequence (P12931 2-536 limits assumed): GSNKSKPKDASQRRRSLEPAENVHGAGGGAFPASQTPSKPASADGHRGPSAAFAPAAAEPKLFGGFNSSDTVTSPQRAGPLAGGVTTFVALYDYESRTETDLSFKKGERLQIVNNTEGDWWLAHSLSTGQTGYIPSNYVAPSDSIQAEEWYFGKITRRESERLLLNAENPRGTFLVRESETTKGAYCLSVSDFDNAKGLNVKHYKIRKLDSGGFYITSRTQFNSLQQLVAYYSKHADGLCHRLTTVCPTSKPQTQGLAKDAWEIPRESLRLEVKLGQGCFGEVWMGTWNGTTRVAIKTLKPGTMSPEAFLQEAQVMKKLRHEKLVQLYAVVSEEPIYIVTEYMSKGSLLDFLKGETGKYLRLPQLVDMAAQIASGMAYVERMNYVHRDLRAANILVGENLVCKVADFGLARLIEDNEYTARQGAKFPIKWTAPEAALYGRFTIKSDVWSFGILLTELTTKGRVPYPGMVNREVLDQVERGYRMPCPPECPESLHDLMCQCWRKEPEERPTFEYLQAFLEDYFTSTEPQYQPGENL

[24] = biological target: T2, Proto-oncogene tyrosine-protein kinase Src; experiment: Inhibition of human full length SRC expressed in baculovirus expression system by mobility shift assay
[25] = system: Tyrosine-protein kinase BTK (Homo sapiens), Q06187 [C481S]; experiment: Inhibition of human full-length BTK C481S mutant (2 to 659 residues) expressed in baculovirus expression system at 0.3 uM by mobility shift assay
Chain of Tyrosine-protein kinase BTK (Homo sapiens), Q06187 [C481S] (Q06187 whole entry C481S, the tested form may be a part): as the sequence (Q06187 whole entry) above, with C481S counted along it

[26] = Clearence in dog at 1 mg/kg, iv; assay type: ADME, organism-based, Canis lupus familiaris; conditions: in vivo
Cytochrome P450 1A2 = Cytochrome P450 1A2 (Homo sapiens, UniProt P05177); experiment: Inhibition of CYP1A2 (unknown origin); assay type: ADME
Cytochrome P450 2C8 = Cytochrome P450 2C8 (Homo sapiens, UniProt P10632); experiment: Inhibition of CYP2C8 (unknown origin); assay type: ADME
Chain of Cytochrome P450 2C8 (P10632 whole entry): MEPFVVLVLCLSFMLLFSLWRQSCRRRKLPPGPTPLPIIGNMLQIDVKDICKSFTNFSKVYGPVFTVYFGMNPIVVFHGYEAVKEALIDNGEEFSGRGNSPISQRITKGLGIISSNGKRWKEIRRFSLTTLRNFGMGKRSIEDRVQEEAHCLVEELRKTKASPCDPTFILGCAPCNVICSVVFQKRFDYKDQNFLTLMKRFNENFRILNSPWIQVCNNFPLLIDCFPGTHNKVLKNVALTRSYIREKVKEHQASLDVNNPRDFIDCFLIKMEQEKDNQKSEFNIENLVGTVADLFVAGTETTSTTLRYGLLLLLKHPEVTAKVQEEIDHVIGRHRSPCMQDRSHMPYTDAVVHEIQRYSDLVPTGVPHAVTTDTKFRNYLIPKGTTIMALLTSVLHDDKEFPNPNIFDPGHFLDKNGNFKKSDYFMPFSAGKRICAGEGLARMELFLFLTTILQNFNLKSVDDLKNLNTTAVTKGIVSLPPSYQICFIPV

[27] = Half life in mouse at 15 mg/kg, po; assay type: ADME, organism-based; conditions: in vivo
[28] = biological target: Tyrosine-protein kinase BTK (Mus musculus) (UniProt P35991); experiment: In vivo inhibition of autophosphorylation of BTK at Y223 in mouse at 7.5 to 30 mg/kg, po measured up to 8 hrs by Western blot analysis; assay type: functional, organism-based; conditions: dose 7.5-30 mg/kg
Chain of Tyrosine-protein kinase BTK (Mus musculus) (P35991 whole entry): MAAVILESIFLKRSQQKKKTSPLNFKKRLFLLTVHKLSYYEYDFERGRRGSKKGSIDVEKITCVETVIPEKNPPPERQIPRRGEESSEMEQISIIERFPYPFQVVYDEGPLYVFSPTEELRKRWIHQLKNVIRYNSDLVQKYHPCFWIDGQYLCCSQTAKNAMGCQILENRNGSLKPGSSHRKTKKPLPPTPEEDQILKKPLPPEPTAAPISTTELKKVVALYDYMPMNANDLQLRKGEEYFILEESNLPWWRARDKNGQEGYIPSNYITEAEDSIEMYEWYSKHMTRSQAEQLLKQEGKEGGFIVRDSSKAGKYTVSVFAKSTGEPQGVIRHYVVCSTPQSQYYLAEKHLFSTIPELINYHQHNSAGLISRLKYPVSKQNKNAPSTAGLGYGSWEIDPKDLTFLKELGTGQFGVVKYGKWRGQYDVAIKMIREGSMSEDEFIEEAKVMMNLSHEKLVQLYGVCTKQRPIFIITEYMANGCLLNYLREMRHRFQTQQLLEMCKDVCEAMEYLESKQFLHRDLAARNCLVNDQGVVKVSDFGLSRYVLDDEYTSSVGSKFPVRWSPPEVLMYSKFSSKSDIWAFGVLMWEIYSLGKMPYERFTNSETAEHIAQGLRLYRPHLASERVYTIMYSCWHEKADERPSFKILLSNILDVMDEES

[29] = Initial plasma concentration in dog at 1 mg/kg, iv; assay type: ADME, organism-based, Canis lupus familiaris
[30] = Half life in mouse at 2 mg/kg, iv; assay type: ADME, organism-based; conditions: in vivo
[31] = Half life in dog at 1 mg/kg, iv; assay type: ADME, organism-based, Canis lupus familiaris; conditions: in vivo
[32] = Plasma protein binding in human; assay type: ADME, cell-free; conditions: read-out: PPB (converted)
[33] = AUC (0 to last) in rat at 2 mg/kg, iv; assay type: ADME, organism-based; design: time 0 - last, dose 2 mg/kg, route iv; conditions: in vivo
[34] = MRT (0 to last) in dog at 5 mg/kg, po; assay type: ADME, organism-based, Canis lupus familiaris; conditions: in vivo
[35] = AUC (0 to last) in rat at 15 mg/kg, po; assay type: ADME, organism-based; design: time 0 - last, dose 15 mg/kg, route po; conditions: in vivo
[36] = MRT (0 to last) in mouse at 2 mg/kg, iv; assay type: ADME, organism-based; conditions: in vivo

Nc1nc(-c2cccc(-n3ccc4cc(C5CC5)cc(F)c4c3=O)c2CO)c2cc(C3=CCN(C4COC4)CC3)[nH]c2n1 [MILREBRUTINIB]
inhibition in vivo at 60 mg/kg (OCI-Ly10 [1]): 112%
inhibition [2]: 67%
Papp [3]: 1.42 ×10⁻⁶ cm/s
Vd [4]: 3.64 L/kg
inhibition in vivo at 6 mg/kg (OCI-Ly10 [5]): 74.5%
IC50 [6]: 0.00372 µM
C0 [7]: 874 ng/mL
inhibition [8]: 53.4%
IC50 [9]: 0.00588 µM
AUC(0-t) [10]: 8060 ng·h/mL
inhibition [11]: 97.7%
AUC(0-t) [12]: 2490 ng·h/mL
fraction unbound [13]: 0.015
IC50 (Cytochrome P450 3A4): > 10 µM
IC50 (Cytochrome P450 2B6): > 10 µM
C0 [14]: 418 ng/mL
C0 [15]: 896 ng/mL
AUC(0-t) [16]: 734 ng·h/mL
half-life [17]: 2.65 h
IC50 [18]: 0.00085 µM
IC50 [19]: 0.00849 µM
inhibition [20]: 99.4%
IC50 (HEL 299): 6.37 µM
C0 [21]: 1717 ng/mL
inhibition [22]: 53.2%
inhibition [23]: 51.9%
IC50 [24]: 0.291 µM
inhibition [25]: 99.8%
clearance [26]: 22.7 mL/min/kg
IC50 (Cytochrome P450 1A2): > 10 µM
IC50 (Cytochrome P450 2C8): 3.17 µM
half-life [27]: 2.25 h
inhibition [28]: Active
C0 [29]: 1280 ng/mL
half-life [30]: 1.12 h
half-life [31]: 1.29 h
fraction unbound [32]: 0.02
AUC(0-t) [33]: 1650 ng·h/mL
MRT last [34]: 2.3 h
AUC(0-t) [35]: 1870 ng·h/mL
MRT last [36]: 1.36 h
